In US20040186288A1, “3,5-Diamino-1,2,4-triazoles as kinase inhibitors” (priority 2001, published 2004):

Columns and labels:
[1] = biological target: KDR (VEGFR II) (Homo sapiens, UniProt P35968); assay: KDR (VEGFR II) kinase assay; type: biochemical; settings: poly-(Glu4Tyr) substrate, 33P-ATP, 10 minutes at room temperature
Experimental: (§1) KDR (VEGFR II) and Tie2 Assay
(§2) In a microtiter plate (without protein binding!) that tapers to a point, the solutions are mixed in the following sequence:
(§3) 10 μl of substrate mixture
(§4) 10 μl of inhibitor dilution
(§5) 10 μl of enzyme solution.
(§6) It is mixed thoroughly and incubated for 10 minutes at room temperature. Then, 10 μl of the stop solution is added, mixed, and 10 μl of the solution is transferred to a P 81, phosphocellulose filter. It is washed several times in 0.1 M phosphoric acid. The filter paper is dried, coated with Meltilex and measured in a microbeta. The IC50 values are determined from the inhibitor concentration that is necessary to inhibit the phosphate incorporation to 50% of the uninhibited incorporation after removal of the blank reading (EDTA-stopped reaction).
(§7) Substrate solvent: 10 mmol of DTT, 10 mmol of MnCl2, 100 mmol of MgCl2 (DTT slightly oxidized, frozen at −80° C.). Before the test, 1:10 diluted with H2O.
(§8) Enzyme solvent: 120 mmol of TrisCl, pH 7.5; 10 μmol of Na3VO4.
(§9) 10 μl of volume of ATP stock solution A+25 μCi γ-^33P-ATP (about 2.5 μl of stock solution B)+30 μl of poly-(Glu4Tyr) stock solution C+1.21 ml of substrate solvent
(§10) Substances corresponding to the dilutions, 3% DMSO in substrate solvent as a control
(§11) 11.25 μg of the enzyme stock solution (KDR and FLT-1 kinase and Tie2) are diluted at of enzyme solvent (other amounts in the case of other activity!).
(§12) Stop Solution: […] of EDTA, pH 7.0
(§13) Washing Solution: 0.5% phosphoric acid

[2] = biological target: T1, CDK2/CycE (Homo sapiens, UniProt P24941); assay: CDK2/CycE kinase assay; type: biochemical; settings: histone IIIS substrate, 0.5 μm ATP, 15 minutes at 22° C.
T1 construct: GST; purchased Dr. Dieter Marme, Klinik für Tumorbiologie, Freiburg (obtained from an outside laboratory, not a commercial vendor); host or cells: baculovirus-infected insect cells (Sf9)
Experimental: Recombinant CDK2- and CycE-GST-fusion proteins, purified from baculovirus-infected insect cells (Sf9), were obtained by Dr. Dieter Marme, Klinik für Tumorbiologie [Clinic for Tumor Biology], Freiburg. Histone IIIS, which was used as a kinase substrate, was purchased by the Sigma Company.
CDK2/CycE (50 ng/measuring point) was incubated for 15 minutes at 22° C. in the presence of various concentrations of test substances (0 μm, as well as within the range of 0.01-100 μm) in assay buffer [50 mmol of tris/HCl pH 8.0, 10 mmol of MgCl2, 0.1 mmol of Na ortho-vanadate, 1.0 mmol of dithiothreitol, 0.5 μm of adenosine triphosphate (ATP), 10 μg/measuring point of histone IIIS, 0.2 μCi/measuring point of ^33P-gamma ATP, 0.05% NP40, 12.5% dimethyl sulfoxide]. The reaction was stopped by adding EDTA solution (250 mmol, pH 8.0, 14 μl/measuring point).
From each reaction batch, 10 μl was applied to P30 filter strips (Wallac Company), and non-incorporated ^33P-ATP was removed by subjecting the filter strips to three washing cycles for 10 minutes each in 0.5% phosphoric acid. After the filter strips were dried for one hour at 70° C., the filter strips were covered with scintillator strips (MeltiLex™ A, Wallac Company) and baked for one hour at 90° C. The amount of incorporated ^33P (substrate phosphorylation) was determined by scintillation measurement in a gamma-radiation measuring device (Wallac).

[3] = biological target: Tie2 (Homo sapiens, UniProt Q02763); assay: Tie2 kinase assay; type: biochemical; settings: poly-(Glu4Tyr) substrate, 33P-ATP, 10 minutes at room temperature; read-out: Tie 2 IC50
Chain of Tie2 (Q02763 23-1124, species assumed): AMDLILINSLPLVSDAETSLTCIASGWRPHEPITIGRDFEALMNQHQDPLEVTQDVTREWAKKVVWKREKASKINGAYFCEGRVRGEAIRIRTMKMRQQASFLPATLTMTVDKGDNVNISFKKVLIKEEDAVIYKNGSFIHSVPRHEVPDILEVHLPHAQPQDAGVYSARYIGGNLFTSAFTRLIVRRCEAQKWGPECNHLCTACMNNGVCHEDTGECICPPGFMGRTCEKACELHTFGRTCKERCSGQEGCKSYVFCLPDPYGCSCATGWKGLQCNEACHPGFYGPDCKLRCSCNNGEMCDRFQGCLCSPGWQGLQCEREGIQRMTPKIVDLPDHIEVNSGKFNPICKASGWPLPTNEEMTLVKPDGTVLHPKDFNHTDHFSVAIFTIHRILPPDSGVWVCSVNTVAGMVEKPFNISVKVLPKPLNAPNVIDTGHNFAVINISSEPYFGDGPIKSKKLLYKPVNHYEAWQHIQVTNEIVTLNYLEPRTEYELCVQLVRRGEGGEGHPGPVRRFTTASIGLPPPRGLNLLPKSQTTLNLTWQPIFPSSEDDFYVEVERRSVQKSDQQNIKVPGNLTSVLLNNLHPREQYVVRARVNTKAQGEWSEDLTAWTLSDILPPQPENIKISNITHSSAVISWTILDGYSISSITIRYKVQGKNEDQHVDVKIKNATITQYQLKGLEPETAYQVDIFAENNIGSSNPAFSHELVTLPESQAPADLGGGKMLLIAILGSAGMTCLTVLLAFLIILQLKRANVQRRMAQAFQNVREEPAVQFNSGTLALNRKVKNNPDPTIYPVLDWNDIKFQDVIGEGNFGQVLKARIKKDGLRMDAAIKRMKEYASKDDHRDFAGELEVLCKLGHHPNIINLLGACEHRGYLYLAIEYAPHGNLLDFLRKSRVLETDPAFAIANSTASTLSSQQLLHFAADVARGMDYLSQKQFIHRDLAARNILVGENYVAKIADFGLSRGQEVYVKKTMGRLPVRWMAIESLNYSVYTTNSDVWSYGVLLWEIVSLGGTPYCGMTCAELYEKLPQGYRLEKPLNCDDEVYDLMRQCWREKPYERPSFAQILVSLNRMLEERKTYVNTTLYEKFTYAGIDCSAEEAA
Experimental: as §1, §2, §3, §4, §5, §6, §7, §8, §9, §10, §11, §12, §13

[4] = system: human MCF7 tumor cells; assay: Proliferation assay (crystal violet); type: cell-based; settings: 96 h, 4 days incubation, read-out: MCF-7 IC50
Experimental: Cultivated human MCF7 tumor cells were flattened out at a density of 5000 cells/measuring point in a 96-well multititer plate in 200 μl of the corresponding growth medium. After 24 hours, the cells of one plate (zero-point plate) were colored with crystal violet (see below), while the medium of the other plates was replaced by fresh culture medium (200 μl), to which the test substances were added in various concentrations (0 μm, as well as in the range of 0.01-30 μm; the final concentration of the solvent dimethyl sulfoxide was 0.5%). The cells were incubated for 4 days in the presence of test substances. The cell proliferation was determined by coloring the cells with crystal violet: the cells were fixed by adding 20 μl/measuring point of an 11% glutaric aldehyde solution for 15 minutes at room temperature. After three washing cycles of the fixed cells with water, the plates were dried at room temperature. The cells were colored by adding 100 μl/measuring point of a 0.1% crystal violet solution (the pH was set at 3 by adding acetic acid). After three washing cycles of the colored cells with water, the plates were dried at room temperature. The dye was dissolved by adding 100 μl/measuring point of a 10% acetic acid solution. The extinction was determined by photometry at a wavelength of 595 nm. The change of cell growth, in percent, was calculated by standardization of the measured values to the extinction values of the zero-point plate (=0%) and the extinction of the untreated (0 μm) cells (=100%).

Chain of KDR (VEGFR II) (P35968 20-1356, species assumed): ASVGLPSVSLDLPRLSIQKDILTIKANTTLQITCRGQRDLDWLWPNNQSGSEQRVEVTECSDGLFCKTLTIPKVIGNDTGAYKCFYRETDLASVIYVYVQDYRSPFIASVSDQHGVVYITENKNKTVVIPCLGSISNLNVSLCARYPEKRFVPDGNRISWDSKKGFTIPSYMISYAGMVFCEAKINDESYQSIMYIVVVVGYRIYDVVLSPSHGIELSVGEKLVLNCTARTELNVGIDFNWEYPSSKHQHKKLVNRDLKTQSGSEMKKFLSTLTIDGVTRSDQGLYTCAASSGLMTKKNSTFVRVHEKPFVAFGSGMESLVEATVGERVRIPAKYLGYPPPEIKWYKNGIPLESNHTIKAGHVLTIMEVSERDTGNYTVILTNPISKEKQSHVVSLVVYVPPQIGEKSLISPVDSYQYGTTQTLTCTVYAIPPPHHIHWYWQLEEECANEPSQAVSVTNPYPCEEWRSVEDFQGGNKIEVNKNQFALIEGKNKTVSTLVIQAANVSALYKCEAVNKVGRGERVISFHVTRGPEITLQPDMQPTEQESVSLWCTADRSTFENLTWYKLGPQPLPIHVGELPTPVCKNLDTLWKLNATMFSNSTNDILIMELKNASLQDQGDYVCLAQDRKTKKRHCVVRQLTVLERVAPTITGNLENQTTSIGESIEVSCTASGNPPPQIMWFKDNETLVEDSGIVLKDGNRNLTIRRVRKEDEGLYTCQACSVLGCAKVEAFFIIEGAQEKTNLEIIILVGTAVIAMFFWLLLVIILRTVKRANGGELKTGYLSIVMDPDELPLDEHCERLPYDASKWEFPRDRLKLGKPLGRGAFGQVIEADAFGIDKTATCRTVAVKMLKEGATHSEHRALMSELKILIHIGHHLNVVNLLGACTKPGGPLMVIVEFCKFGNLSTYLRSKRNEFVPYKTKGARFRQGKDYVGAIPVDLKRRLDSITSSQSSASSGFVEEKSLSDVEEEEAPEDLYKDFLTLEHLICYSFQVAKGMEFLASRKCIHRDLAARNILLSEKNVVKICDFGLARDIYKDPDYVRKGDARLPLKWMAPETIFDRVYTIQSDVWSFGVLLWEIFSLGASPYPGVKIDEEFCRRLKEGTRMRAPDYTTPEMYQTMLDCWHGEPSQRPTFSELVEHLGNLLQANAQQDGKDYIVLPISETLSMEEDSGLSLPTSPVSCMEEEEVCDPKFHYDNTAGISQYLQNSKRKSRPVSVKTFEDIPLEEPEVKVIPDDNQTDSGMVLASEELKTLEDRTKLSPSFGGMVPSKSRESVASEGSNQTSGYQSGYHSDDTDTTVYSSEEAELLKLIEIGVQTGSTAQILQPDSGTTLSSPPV

IC50 [1]	IC50 [2]	IC50 [3]	IC50 [4]	melting point	SMILES
10 nM	400 nM	> 1000 nM	2000 nM	247 °C	Nc1nc(Nc2cccnc2)nn1-c1ccc2ccccc2c1 [Example 5]
–	–	–	–	278 °C	Nc1nc(Nc2nccc3ccccc23)nn1-c1ccccn1 [Example 18]
20 nM	800 nM	500 nM	4000 nM	225 °C	Nc1nc(Nc2cnc3ccccc3c2)nn1-c1ccccn1 [Example 10]
30 nM	6000 nM	> 1000 nM	6000 nM	255 °C	Nc1nc(Nc2cccnc2)nn1-c1ncccc1C(F)(F)F [Example 4]
–	–	–	–	169 °C	COc1ncccc1Nc1nc(N)n(-c2ccccn2)n1 [Example 11]
–	–	–	–	159 °C	COc1ccc(Nc2nc(N)n(-c3ccccn3)n2)c(OC)n1 [Example 14]
40 nM	300 nM	500 nM	1100 nM	285 °C	Nc1nc(Nc2cncc(Br)c2)nn1-c1ccccn1 [Example 15]
20 nM	2800 nM	–	–	287 °C	Nc1nc(Nc2cncc3ccccc23)nn1-c1ccccn1 [Example 16]
–	–	–	–	191 °C	Cc1ccc(Nc2nc(N)n(-c3ccccn3)n2)c(C)n1 [Example 21]
–	–	–	–	234 °C	Nc1nc(Nc2cccnc2)nn1-c1cccnc1 [Example 7]
30 nM	500 nM	> 1000 nM	1500 nM	253 °C	Nc1nc(Nc2cnc3ncccc3c2)nn1-c1ccccn1 [Example 17]
50 nM	1000 nM	500 nM	> 10000 nM	237 °C	COc1ccc(Nc2nc(N)n(-c3ccccn3)n2)cn1 [Example 9]
200 nM	2000 nM	> 1000 nM	4000 nM	254 °C	Nc1nc(Nc2cccnc2)nn1-c1ccc(C(F)(F)F)cn1 [Example 6]
–	–	–	–	193 °C	Nc1nc(Nc2cnccc2Cl)nn1-c1ccccn1 [Example 20]
–	–	–	–	223 °C	Nc1nc(Nc2cccnc2)nn1-c1ccccc1 [Example 8]
20 nM	200 nM	500 nM	700 nM	246 °C	Nc1nc(Nc2cccnc2)nn1-c1nccc2ccccc12 [Example 13]
10 nM	2000 nM	> 1000 nM	> 10000 nM	212 °C	Cc1cc(C(F)(F)F)cc(-n2nc(Nc3cccnc3)nc2N)n1 [Example 3]
–	–	–	–	249 °C	Nc1nc(Nc2cnc3ccccc3c2)nn1-c1ccc2ccccc2n1 [Example 12]
–	–	–	–	326 °C	Nc1nc(Nc2ccc3ccccc3n2)nn1-c1ccccn1 [Example 19]
–	–	–	1500 nM	–	Nc1nc(Nc2cccnc2)nn1-c1ccccn1 [Example 1, 5-Amino-1-(2-pyridinyl)-3-(3-pyridinylamino)-1H-1,2,4-triazole]
